Laboratory results published in US5079257A, “Indoloquinone compounds” (priority 1986, dated 1992).
≈ marks a conversion by molar mass, not a printed value. Where two headings read alike, the source gives them in different places.

Columns and labels:
L1210 cells [1] = assay: L1210 activity in clonogenic assay (TNO Rijswijk); type: cell-based; conditions: Mus musculus, L1210, 192 h, read-out: ID-50 L1210, clonogenic assay
Description: The indoloquinones II (formula II) have been tested in respect of their cytotoxic activity against L1210 cells and R-1 cells (Rhabdomyosarcoma Cells) in a bioliquid assay at the department of oncology of the Free University of Amsterdam (Table I). In addition to this seven compounds (E.O. 1, E.O. 2, E.O. 4, E.O. 7, E.O. 9, E.O. 16 and E.O. 17) have been tested on L1210 activity in a clonogenic assay at TNO, Rijswijk. Further, the lowest active doses of the compounds E.O. 1, E.O. 2, E.O. 4 and E.O. 9 have been determined at TNO Rijswijk, according to the method described by Lamberts et al. [Oncology, 40, 301 (1983)]. (Table II). Eight indoloquinones (E.O. 1, E.O. 2, E.O. 4, E.O. 4A, E.O. 8, E.O. 9, E.O. 33 and E.O. 35) have been tested in a panel of five human tumour lines (TNO Rijswijk; Table III). From the latter group three indoloquinones (E.O. 1, E.O. 4 and E.O. 9) have been selected for a cytotoxicity study, involving five slowly growing human tumour lines (University of Freiburg; Table IV).
The L1210 clonogenic assay used was an improved variant of the method described earlier by H. MARTIN et al. [Cancer Chemother., Rep., 51 451 (1967)] and L. M. van Putten et al. [Cancer Treat. Rep., 60, 373 (1976)] for the growth into colonies of L1210 cells in a soft agar medium. From a suspension culture ~100 L1210 Cells (0.1 ml) were plated into […] culture dishes (Falcon), containing 1 ml of soft agar growth medium and the compound to be tested in appropriate concentrations. The soft agar growth medium consisted of Dulbecco medium supplemented with 15.8% horse serum, 60 μmol 2-mercapto-ethanol, 20 mg/ml L-asparagine and 0.3% bacto agar (Difco).
The culture dishes were incubated at 37° C. in an atmosphere of 1% CO2 in humidified air for 8 days. After this period of continuous drug exposure, colonies were counted and dose-effect curves were made.

[2] = Half-wave reduction potentials / polarography (University of Utrecht); type: physicochemical
Procedure, shortened: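 Polarographic half-wave potentials (E1/2) measured; only the first, quinone, reduction potential is reported.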

[3] = test system: R-1 cells (Rhabdomyosarcoma Cells); assay: R-1 activity (bioliquid assay), cytotoxicity; type: cell-based; conditions: Rhabdomyosarcoma cell
Procedure, shortened: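 Rhabdomyosarcoma R-1 cells (~10^6 per dish) in Dulbecco's medium with 10% FCS were exposed to drug solution, which was then replaced by fresh medium. Cells were trypsinized after 48 hours and counted electronically.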

Colon 2 tumour line = assay: Colony inhibition in vitro, continuous drug exposure (Freiburg); type: cell-based; conditions: Homo sapiens, read-out: colony formation treated/control (T/C), Colon 2; for activity at 1 µg/mL: 1.0 μg/ml
Protocol: (§1) Three indoloquinones were tested at the University of Freiburg with respect to their in vitro inhibition of colony formation of the following five human tumour cell lines: lung-NSCLC, breast, renal and two colon lines.

[4] = test system: Mammary (breast) tumour line; assay: as above; type: cell-based; conditions: Homo sapiens, read-out: colony formation treated/control (T/C), Mammary; for activity at 1 µg/mL: 1.0 μg/ml
Protocol: as §1

Renal tumour line = assay: as above; type: cell-based; conditions: Homo sapiens, read-out: colony formation treated/control (T/C), Renal; for activity at 1 µg/mL: 1.0 μg/ml
Protocol: as §1

Colon 1 tumour line = assay: as above; type: cell-based; conditions: Homo sapiens, read-out: colony formation treated/control (T/C), Colon 1; for activity at 1 µg/mL: 1.0 μg/ml
Protocol: as §1

L1210 cells [5] = assay: L1210 activity (bioliquid assay), cytotoxicity; type: cell-based; conditions: Mus musculus
Procedure, shortened: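 Suspension culture in RPMI with 15% FCS and 2-mercaptoethanol (60 μmol). Continuous compound exposure for 48 hours at 37° C under 5% CO2 in humidified air. Cell numbers then counted on an electronic microcell counter.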

[6] = 8 days continuous exposure, TNO Rijswijk
[7] = Table I, bioliquid assay, read-out: ID-50 R-1
[8] = L1210, Table I, bioliquid assay, 48 hours, read-out: ID-50 L1210

With COC1=CC(=O)c2c(c(COC(C)=O)c(/C=C/COC(C)=O)n2C)C1=O [E.O. 1, 3-Acetoxymethyl-5-methoxy-1-methyl-2-[1H-indole-4,7-dione]prop-β-en-α-yl acetate] the IC50 (L1210 cells [1]; [6]) was 2.5 µg/mL, the “direct current polarogram” value ([2]; DC-polarography) was “two or more reduction waves” and the “half-wave potential E1.2, wave I” value ([2]; pH = 8 vs Ag/AgCl) was -367 mV. For the same molecule, the “half-wave potential E1.2, wave III” value ([2]; pH = 8 vs Ag/AgCl) was -435 mV, the “half-wave potential E1.2, wave IV” value ([2]; pH = 8 vs Ag/AgCl) was -775 mV and the IC50 [3, 7] was 2.3 µg/mL. For the same molecule, the IC50 ([3]; Table VI, read-out: ID-50 R-1) was 0.3 µg/mL, the activity at 0.01 µg/mL (Colon 2 tumour line; 0.01 μg/ml) was 71% and the activity at 0.1 µg/mL (Colon 2 tumour line; 0.1 μg/ml) was 24%. The activity at 1 µg/mL (Colon 2 tumour line) was 3%, the activity at 0.01 µg/mL ([4]; 0.01 μg/ml) was 99% and the activity at 0.1 µg/mL ([4]; 0.1 μg/ml) was 0%. The activity at 1 µg/mL [4] was 0%, the activity at 0.1 µg/mL (Renal tumour line; 0.1 μg/ml) was 68% and the activity at 1 µg/mL (Renal tumour line) was 0%. The activity at 0.01 µg/mL (Colon 1 tumour line; 0.01 μg/ml) was 108%, the activity at 0.1 µg/mL (Colon 1 tumour line; 0.1 μg/ml) was 37% and the activity at 1 µg/mL (Colon 1 tumour line) was 21%. For the same molecule, the IC50 (L1210 cells [5]; [8]) was 2.3 µg/mL.

COC(=O)OC/C=C/c1c(COC(=O)OC)c2c(n1C)C(=O)C=C(OC)C2=O [E.O. 2, Methyl 5-methoxy-3-methoxycarbonyloxymethyl-1-methyl-2-[1H-indole-4,7 dione]prop-β-en-α-yl carbonate] gave an IC50 (L1210 cells [1]; [6]) of 3.7 µg/mL (≈ 9.41 µM), an IC50 [3, 7] of 0.4 µg/mL (≈ 1.02 µM) and an IC50 (L1210 cells [5]; [8]) of 0.5 µg/mL (≈ 1.27 µM).

Molecule CC(=O)OC/C=C/c1c(COC(C)=O)c2c(n1C)C(=O)C=C(N1CC1)C2=O [E.O. 4, 3-Acetoxymethyl-5-aziridino-1-methyl-2-[1H-indole-4,7-dione]prop-β-en-α-yl acetate] has an IC50 (L1210 cells [1]) of under 1 µg/mL, an IC50 ([3]; read-out: ID-50 R-1, Table VIII) of 0.025 µg/mL and an activity at 0.001 µg/mL (Colon 2 tumour line) of 86%. For the same molecule, the activity at 0.01 µg/mL (Colon 2 tumour line) was 70%, the activity at 0.1 µg/mL (Colon 2 tumour line) was 11% and the activity at 0.001 µg/mL [4] was 95%. For the same molecule, the activity at 0.01 µg/mL [4] was 46%, the activity at 0.1 µg/mL [4] was 0% and the activity at 0.001 µg/mL (Renal tumour line) was 88%. It also gave an activity at 0.01 µg/mL (Renal tumour line) of 88%, an activity at 0.1 µg/mL (Renal tumour line) of 41% and an activity at 0.001 µg/mL (Colon 1 tumour line) of 51%. It also gave an activity at 0.01 µg/mL (Colon 1 tumour line) of 56%, an activity at 0.1 µg/mL (Colon 1 tumour line) of 56% and an IC50 (L1210 cells [5]; L1210, 48 h, read-out: ID-50 L1210, Table VIII) of 1.6 µg/mL.

With Cn1c(/C=C/CO)c(CO)c2c1C(=O)C=C(N1CC1)C2=O [E.O. 9, 5-Aziridino-3-hydroxymethyl-1-methyl-2-[1H-indole-4,7-dione]prop-β-en-α-ol] the IC50 (L1210 cells [1]; [6]) was 0.8 µg/mL (≈ 2.77 µM), the “half-wave potential E1.2, wave I” value ([2]; pH = 8 vs Ag/AgCl) was -370 mV and the “half-wave potential E1.2, wave II” value ([2]; pH = 8 vs Ag/AgCl) was -785 mV. The IC50 [3, 7] was 0.003 µg/mL (≈ 0.0104 µM), the IC50 ([3]; Table VIII, read-out: ID-50 R-1) was 0.0034 µg/mL (≈ 0.0118 µM) and the activity at 0.01 µg/mL (Colon 2 tumour line; 0.01 μg/ml) was 136%. For the same molecule, the activity at 0.1 µg/mL (Colon 2 tumour line; 0.1 μg/ml) was 20%, the activity at 1 µg/mL (Colon 2 tumour line) was 1% and the activity at 0.01 µg/mL ([4]; 0.01 μg/ml) was 38%. It also gave an activity at 0.1 µg/mL ([4]; 0.1 μg/ml) of 2%, an activity at 1 µg/mL [4] of 0% and an activity at 0.01 µg/mL (Renal tumour line; 0.01 μg/ml) of 123%. The activity at 0.1 µg/mL (Renal tumour line; 0.1 μg/ml) was 8%, the activity at 1 µg/mL (Renal tumour line) was 0% and the activity at 0.01 µg/mL (Colon 1 tumour line; 0.01 μg/ml) was 51%. For the same molecule, the activity at 0.1 µg/mL (Colon 1 tumour line; 0.1 μg/ml) was 47%, the activity at 1 µg/mL (Colon 1 tumour line) was 9% and the IC50 (L1210 cells [5]; L1210, 48 h, Table VIII, read-out: ID-50 L1210) was 0.46 µg/mL (≈ 1.6 µM).
